Experimental data published in ChEMBL document CHEMBL1201862, “PubChem BioAssay data set” (2004).
Activity calls are given as the source filed them. Cut-off read from the data, not from the text of the source: actives have a measured IC50 and inactives only a lower limit.

Biological target: Envelope glycoprotein gp160 (Human immunodeficiency virus 1, UniProt Q6QLK5)
Assay: cell-free HIV fusion peptide-binding blockers – biochemical, uHTS, fluorescence dequenching, […] (AID 1986)

Sequence of Envelope glycoprotein gp160 (Q6QLK5 whole entry, the tested form may be a part): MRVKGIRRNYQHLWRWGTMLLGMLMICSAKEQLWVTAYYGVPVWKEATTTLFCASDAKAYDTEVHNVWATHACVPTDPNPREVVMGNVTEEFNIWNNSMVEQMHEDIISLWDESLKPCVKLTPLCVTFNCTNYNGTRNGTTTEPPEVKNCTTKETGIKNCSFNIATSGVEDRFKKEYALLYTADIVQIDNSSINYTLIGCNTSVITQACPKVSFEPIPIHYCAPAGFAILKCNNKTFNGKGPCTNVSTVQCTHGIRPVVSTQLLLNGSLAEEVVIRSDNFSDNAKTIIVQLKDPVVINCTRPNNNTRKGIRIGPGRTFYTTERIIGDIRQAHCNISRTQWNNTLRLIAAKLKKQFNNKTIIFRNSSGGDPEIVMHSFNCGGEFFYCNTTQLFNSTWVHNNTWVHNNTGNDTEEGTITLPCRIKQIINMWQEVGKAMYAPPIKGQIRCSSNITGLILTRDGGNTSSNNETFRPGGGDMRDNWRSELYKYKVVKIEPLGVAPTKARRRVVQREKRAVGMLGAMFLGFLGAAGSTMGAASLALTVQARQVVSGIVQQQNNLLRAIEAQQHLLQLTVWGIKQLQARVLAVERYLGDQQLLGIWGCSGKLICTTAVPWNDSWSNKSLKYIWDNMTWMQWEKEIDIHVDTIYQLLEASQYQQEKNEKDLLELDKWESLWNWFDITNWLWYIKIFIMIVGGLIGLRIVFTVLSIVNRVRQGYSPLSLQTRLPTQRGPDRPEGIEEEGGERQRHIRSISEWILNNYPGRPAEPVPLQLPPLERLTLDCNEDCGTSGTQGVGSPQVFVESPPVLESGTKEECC

O=C(O)C1Nc2c(O)cccc2C2C=CCC12 (stereo not drawn)
IC50: 9.86 µM (active)

O=C(NCc1ccccc1)c1ccc2c(=O)[nH]c3c(C(=O)NCC4CCCO4)sc(=S)n3c2c1 (stereo not drawn)
IC50: 24.5 µM (active)

O=C(CN1C(=O)S/C(=C\C=C\c2ccccc2)C1=O)Nc1ccccc1C(=O)O
IC50: 21.1 µM (active)
